# Assay results published in patent US12661342B2, “Heteroaryl compounds and therapeutic uses thereof in conditions associated with the alteration of the activity of beta-glucocerebrosidase” (GT GAIN THERAPEUTICS SA, priority 2019, dated 2026).
# Biological target: T1, β-glucocerebrosidase (Homo sapiens, UniProt P04062, L483P)
# T1 construct: host or cells: human Gaucher disease patient fibroblasts GM08760A
# T1 sequence (P04062 40-536 L483P): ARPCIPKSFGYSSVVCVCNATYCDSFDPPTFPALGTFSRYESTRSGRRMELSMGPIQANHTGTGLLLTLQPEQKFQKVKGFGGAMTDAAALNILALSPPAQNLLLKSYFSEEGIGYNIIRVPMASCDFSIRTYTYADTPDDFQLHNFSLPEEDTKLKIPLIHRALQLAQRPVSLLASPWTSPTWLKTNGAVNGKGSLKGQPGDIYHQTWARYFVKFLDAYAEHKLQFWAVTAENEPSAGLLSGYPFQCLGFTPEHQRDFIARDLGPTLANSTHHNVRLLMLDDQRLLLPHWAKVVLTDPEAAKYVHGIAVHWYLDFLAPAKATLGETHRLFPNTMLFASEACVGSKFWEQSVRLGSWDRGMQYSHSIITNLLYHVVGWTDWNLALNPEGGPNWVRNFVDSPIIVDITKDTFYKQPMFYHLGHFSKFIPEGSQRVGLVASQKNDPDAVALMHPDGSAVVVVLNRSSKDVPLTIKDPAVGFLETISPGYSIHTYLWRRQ
# Assay: Enhancement of β-glucocerebrosidase activity measured in Gaucher disease fibroblasts (4-MU-β-D-glucopyranoside substrate, intact cells)
# Assay type: cell-based
# Design: key: Increase in comparison with non-treated of >2.0 fold is shown as A; Increase in comparison with non-treated of >1.7-2.0 fold is shown as B; Increase in comparison with non-treated of 1.2-1.7 fold is shown as C; D means that no increase compared with non-treated cells was detected in this method
# Details: GBA fibroblasts bearing L444P (GM08760A, homozygous p.L444P); compound at concentrations between 6 and 50 μM; 4 days incubation
# Procedure, shortened: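 Patient fibroblasts homozygous for p.L444P (GM08760A), grown in DMEM/10% FBS and exposed to compound for 4 days. Intact cells then given 4-MU-β-D-glucopyranoside in 0.1 M acetate pH 4, 1 h, 37 °C; stopped at pH 10.7, 4-MU fluorescence ex 340/em 460. Value is fold increase over untreated cells; binned at 6–50 μM.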
Compound,Range: increase in enzyme activity in comparison with non-treated cells (Enzyme activity assay for compounds of Examples 33-141),Range: increase in enzyme activity in comparison with non-treated cells (Enzyme activity assay for exemplified compounds)
"CN(C(=O)c1cc(N)nc(Nc2ccccc2O)c1)C1Cc2ccccc2C1 [Example 44, 2-Amino-N-(2,3-dihydro-1H-inden-2-yl)-6-((2-hydroxyphenyl)amino)-N-methyl-isonicotinamide]",C (Increase in comparison with non-treated of 1.2-1.7 fold is shown as C),–
"Nc1cc(Nc2ccccc2F)nc(C(=O)N2CCN(c3ccccc3)CC2)c1 [Example 48, (4-Amino-6-((2-fluorophenyl)amino)pyridin-2-yl)(4-phenylpiperazin-1-yl)methanone]",C (Increase in comparison with non-treated of 1.2-1.7 fold is shown as C),–
"Nc1nc(Nc2cccc(Br)c2)nc(C(=O)NC2CCc3ccccc3C2)n1 (stereo not drawn) [Example 19, 4-Amino-6-((3-bromophenyl)amino)-N-(1,2,3,4-tetrahydronaphthalen-2-yl)-1,3,5-triazine-2-carboxamide]",–,C (Increase in comparison with non-treated of 1.2-1.7 fold is shown as C)
"Cc1cccc(Nc2cc(N)cc(C(=O)NC3Cc4ccccc4C3)n2)c1O [Example 91, 4-Amino-N-(2,3-dihydro-1H-inden-2-yl)-6-((2-hydroxy-3-methylphenyl)amino)picolinamide]",B (Increase in comparison with non-treated of >1.7-2.0 fold is shown as B),–
"Cc1ccc(Nc2cc(N)nc(C(=O)NC3Cc4ccccc4C3)c2)c(O)c1 [Example 68, 6-Amino-N-(2,3-dihydro-1H-inden-2-yl)-4-((2-hydroxy-4-methylphenyl)amino)picolinamide]",C (Increase in comparison with non-treated of 1.2-1.7 fold is shown as C),–
"Nc1cc(C(=O)Nc2ccccc2)cc(Nc2ccccc2O)n1 [Example 46, 2-Amino-6-((2-hydroxyphenyl)amino)-N-phenylisonicotinamide]",B (Increase in comparison with non-treated of >1.7-2.0 fold is shown as B),–
"COc1ccccc1Nc1nc(N)nc2c1CCN(Cc1ccccc1)C2 [Example 24, 7-Benzyl-N4-(2-methoxyphenyl)-5,6,7,8-tetrahydropyrido[3,4-d]pyrimidine-2,4-diamine]",–,C (Increase in comparison with non-treated of 1.2-1.7 fold is shown as C)
"Cc1cccc(Nc2cc(N)cc(C(=O)NC3Cc4ccccc4C3)n2)c1F [Example 90, 4-Amino-N-(2,3-dihydro-1H-inden-2-yl)-6-((2-fluoro-3-methylphenyl)amino)picolinamide]",C (Increase in comparison with non-treated of 1.2-1.7 fold is shown as C),–
"Cc1cccc(Nc2cc(N)cc(C(=O)NC3Cc4ccccc4C3)n2)c1 [Example 97, 4-Amino-N-(2,3-dihydro-1H-inden-2-yl)-6-(m-tolylamino)picolinamide]",A (Increase in comparison with non-treated of >2.0 fold is shown as A),–
"Cc1ccc(Nc2nc(N)cc(C(=O)N(C)c3ccccc3)n2)cc1 [Example 6, 6-Amino-N-methyl-N-phenyl-2-(p-tolylamino)pyrimidine-4-carboxamide]",–,D
"CN(Cc1ccccc1)C(=O)c1cc(N)nc(Nc2ccccc2O)n1 [Example 4, 6-Amino-N-benzyl-2-((2-hydroxyphenyl)amino)-N-methylpyrimidine-4-carboxamide]",–,C (Increase in comparison with non-treated of 1.2-1.7 fold is shown as C)
"Nc1cc(C(=O)NC2CCc3ccccc3C2)cc(Nc2ccccc2O)n1 (stereo not drawn) [Example 45, 2-Amino-6-((2-hydroxyphenyl)amino)-N-(1,2,3,4-tetrahydronaphthalen-2-yl)isonicotinamide]",C (Increase in comparison with non-treated of 1.2-1.7 fold is shown as C),–
"COc1cccc(Nc2nc(N)cc(C(=O)N3Cc4ccccc4C3)n2)c1 [Example 38, (6-Amino-2-((3-methoxyphenyl)amino)pyrimidin-4-yl)(isoindolin-2-yl)methanone]",D,–
"Nc1cc(Nc2cccnc2)cc(C(=O)Nc2ccccc2)n1 [Example 80, 6-Amino-N-phenyl-4-(pyridin-3-ylamino)picolinamide]",C (Increase in comparison with non-treated of 1.2-1.7 fold is shown as C),–
"Nc1cc(Nc2cccc3c2OCO3)nc(C(=O)NC2Cc3ccccc3C2)c1 [Example 89, 4-Amino-6-(benzo[d][1,3]dioxol-4-ylamino)-N-(2,3-dihydro-1H-inden-2-yl)picolinamide]",C (Increase in comparison with non-treated of 1.2-1.7 fold is shown as C),–
"Nc1cc(Nc2ccccc2Cl)cc(C(=O)NC2Cc3ccccc3C2)n1 [Example 72, 6-Amino-4-((2-chlorophenyl)amino)-N-(2,3-dihydro-1H-inden-2-yl)picolinamide]",D,–
"Cl.Nc1cc(Nc2cc(F)cc(F)c2)nc(C(=O)NC2Cc3ccccc3C2)c1 [Example 140, 4-Amino-6-((3,5-difluorophenyl)amino)-N-(2,3-dihydro-1H-inden-2-yl)picolinamide hydrochloride]",A (Increase in comparison with non-treated of >2.0 fold is shown as A),–
"Cl.Nc1cc(Nc2ccccc2F)nc(C(=O)NC2Cc3ccccc3C2)c1 [Example 139, 4-Amino-N-(2,3-dihydro-1H-inden-2-yl)-6-((2-fluorophenyl)amino)picolinamide hydrochloride]",C (Increase in comparison with non-treated of 1.2-1.7 fold is shown as C),–
"Nc1cc(Nc2cccnc2)nc(C(=O)NC2Cc3ccccc3C2)c1 [Example 102, 4-Amino-N-(2,3-dihydro-1H-inden-2-yl)-6-(pyridin-3-ylamino)picolinamide]",C (Increase in comparison with non-treated of 1.2-1.7 fold is shown as C),–
"COc1cccc(Nc2nc(N)cc(C(=O)N(C)c3ccccc3)n2)c1 [Example 7, 6-Amino-2-((3-methoxyphenyl)amino)-N-methyl-N-phenylpyrimidine-4-carboxamide]",–,D
"Nc1cc(Nc2cccc(F)c2)nc(C(=O)NC2Cc3ccccc3C2)c1 [Example 92, 4-Amino-N-(2,3-dihydro-1H-inden-2-yl)-6-((3-fluorophenyl)amino)picolinamide]",A (Increase in comparison with non-treated of >2.0 fold is shown as A),–
"Nc1cc(Nc2ccccc2O)nc(C(=O)N2CCN(c3ccccc3)CC2)n1 [Example 125, (4-Amino-6-((2-hydroxyphenyl)amino)pyrimidin-2-yl)(4-phenylpiperazin-1-yl)methanone]",C (Increase in comparison with non-treated of 1.2-1.7 fold is shown as C),–
"CN(C(=O)c1cc(N)cc(Nc2ccccc2F)n1)c1ccccc1 [Example 114, 4-Amino-6-((2-fluorophenyl)amino)-N-methyl-N-phenylpicolinamide]",D,–
"Nc1cc(C(=O)N2CCc3ccccc32)nc(Nc2ccccc2O)n1 [Example 37, (6-Amino-2-((2-hydroxyphenyl)amino)pyrimidin-4-yl)(indolin-1-yl)methanone]",D,–
"COc1ccccc1Nc1cc(C(=O)N2CCN(c3ccccc3)CC2)nc(N)n1 [Example 34, (2-Amino-6-((2-methoxyphenyl)amino)pyrimidin-4-yl)(4-phenylpiperazin-1-yl)methanone]",D,–
"Cc1ccccc1Nc1cc(N)cc(C(=O)NC2Cc3ccccc3C2)n1 [Example 87, 4-Amino-N-(2,3-dihydro-1H-inden-2-yl)-6-(o-tolylamino)picolinamide]",B (Increase in comparison with non-treated of >1.7-2.0 fold is shown as B),–
"Nc1cc(C(=O)Nc2ccccc2)nc(Nc2ccccc2O)n1 [Example 11, 6-Amino-2-((2-hydroxyphenyl)amino)-N-phenylpyrimidine-4-carboxamide]",–,B (Increase in comparison with non-treated of >1.7-2.0 fold is shown as B)
